Measurements taken from patent publication USRE44962E1, “Genetically engineered plant cells and plants exhibiting resistance to glutamine synthetase inhibitors, DNA fragments and recombinants for use in the production of said cells and plants” (Bayer Cropscience N.V., priority 1986, dated 2014).

What was measured:
[1] = system: S. lividans; format: cell-based
[2] = target: PPT acetyl transferase (Streptomyces hygroscopicus, UniProt P16426); format: biochemical, S. hygroscopicus ATCC 21 705; settings: S. hygroscopicus derivates; S. lividans carrying pBG20 or pBG16
[3] = system: Phytophtora infestans; format: in vivo; settings: sfr potato plants sprayed at 8 l/ha once symptoms visible, read two weeks later
[4] = system: E. coli W3110; assay: Growth of E. coli W3110 on M9 medium containing Bialaphos; format: cell-based; settings: for resistance of pBG93/W3110 to Bialaphos: M9 medium
[5] = system: glutamine synthetase (GS); settings: cited from earlier work

Sequence of PPT acetyl transferase (P16426 whole entry): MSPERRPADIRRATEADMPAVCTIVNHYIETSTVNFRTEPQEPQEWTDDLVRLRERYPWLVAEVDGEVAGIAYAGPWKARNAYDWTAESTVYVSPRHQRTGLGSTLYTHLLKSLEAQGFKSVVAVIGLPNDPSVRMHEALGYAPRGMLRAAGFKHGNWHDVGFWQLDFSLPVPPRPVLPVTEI

SMILES	growth of transformants containing pBG20 ([1]; S. lividans with pBG20, medium containing 500 μg/ml Bialaphos)	Bialaphos concentration at which S. lividans growth is normally inhibited ([1]; untransformed S. lividans, minimal medium)	acetylation by the PPT acetyl transferase activity [2]	growth of the fungus on treated plants [3]	growth of W3110 host devoid of pBG93 ([4]; M9 medium containing 5 μg/ml Bialaphos)	resistance of pBG93/W3110 to Bialaphos ([4]; in the presence of IPTG (0.5 mM))	resistance of pBG93/W3110 to Bialaphos ([4]; without IPTG)	inhibition of glutamine synthetase (GS) [5]
CC(NC(=O)C(C)NC(=O)C(N)CCP(C)(=O)O)C(=O)O (stereo not shown) [Bialaphos]	not noticeably inhibited	1 µg/mL	does not acetylate	stopped	did not grow	50 μg/ml	5 μg/ml	–
CC(=O)NC(CCP(C)(=O)O)C(=O)O (stereo not shown) [N-acetyl PPT]	–	–	–	–	–	–	–	not an inhibitor
CP(=O)(O)CCC(N)C(=O)O (stereo not shown) [PPT, phosphinothricin]	–	–	could acetylate	–	–	–	–	inhibits
